From PMC5653977 (EMBO Molecular Medicine, 2017) come the findings set out here.

Structures can show the parent of a compound that is named as a salt.

In one assay the test system is NRG1-ERBB4 signaling. The assay can be described thus: Nrg1-ERBB4-PIK3R1 split TEV co-culture compound screen of the NIH Clinical Collection. As to conditions: NIH Clinical Collection NCC-003 raw data; compounds ranked by Z-score; 'flagged' given instead of a Z-score. It is filed as cell-based, human. An excerpt:
For our HTS‐compatible split TEV assay approach, human full‐length ERBB4‐Cyt1 was fused to the NTEV fragment, a TEV protease cleavage site (tevS) and the artificial co‐transcriptional activator Gal4‐VP16 (ERBB4‐NTEV‐tevS‐GV); human PIK3R1 was fused to the CTEV fragment (PIK3R1‐CTEV) (Fig 1A). Upon ERBB4 activation, PIK3R1 is recruited to the receptor resulting in a reconstituted protease activity that cleaves off GV. In turn, released GV translocates to the nucleus and binds to upstream activating sequences (UAS) to activate the transcription of a firefly luciferase reporter gene (Fig 1A). A constitutively expressed Renilla luciferase driven under the control of the human thymidine kinase (TK) promoter was used as control to address off‐target effects related to toxicity.
For small molecule screening, the NIH‐NCC Clinical Collection library (sets NCC‐003 and NCC‐201) was used containing 727 small molecules that are FDA‐approved and have a history in clinical applications (www.nihclinicalcollection.com). A Hamilton Labstar robot connected to 37 and 4°C incubators for cell incubation and compound storage and application (Cytomat automated incubator, ThermoScientific) and to a luciferase reader (Berthold Technologies) was used to automatically perform the screening. […] Each batch was screened three times.
For one 96‐well plate, 4 × 10^6 PC12 cells were harvested and diluted in 5 ml assay medium (phenol red‐free DMEM (low glucose, Life Technologies), 10% FCS, 5% HS, no antibiotics). The split TEV assay plasmids (2 μg pcDNA3_ERBB4‐NTEV‐tevS‐GV‐2xHA, 2 μg pTag4C_PIK3R1‐CTEV‐2xHA, 2 μg p5xUAS_firefly luciferase, 2 μg pTK_Renilla luciferase, and 0.5 μg pECFP‐C1 for examining transfection efficiency) were diluted in 2.5 ml Opti‐MEM (Life Technologies) and vortexed. In parallel, 20 μl of the transfection reagent Lipofectamine 2000 was diluted in 2.5 ml Opti‐MEM and vortexed.
For plating of one 96‐well plate, 10 ml suspension, containing the 4 × 10^6 in solution‐transfected cells, was placed in the bubble paddle reservoir of the Hamilton Cellstar robot. 100 μl was seeded per 96‐well using the 96‐tip pipetting head. The homogeneity of the cell suspension was guaranteed over time by mild stirring using the paddling device inside the reservoir. For five plates each, 50 ml of additional cell suspension was used to allow for losses of inaccessible volume.
The cells were allowed to express the plasmids for 24 h before compounds were added. Proper expression and transfection efficiency were verified by ECFP expression on a clear control plate. The compounds were applied in a final concentration of 10 μM using DMSO as diluent. […] Thirty minutes later, 10,000 Nrg1‐expressing PC12 cells in 100 μl assay medium were seeded on top. 24 h after addition of the compounds, the cells were lysed using 40 μl Passive Lysis buffer (Promega) and subjected to a Dual Luciferase Assay (Promega) according to the manufacturer's instructions. The data were analyzed in R Bioconductor using the package cellHTS2 (http://www.bioconductor.org/packages/devel/bioc/html/cellHTS2.html), assessed using the z‐score, and visualized using the program Mondrian (http://stats.math.uni-augsburg.de/mondrian/).
For `COC(=O)Nc1nc2cc(C(=O)c3ccc(F)cc3)ccc2[nH]1` [FLUBENDAZOLE], the Z-SCORE result is on record as “flagged”. `[H]/N=C(/NCCCCC)N/N=C/c1c[nH]c2ccc(OC)cc12` [TEGASEROD MALEATE]: the Z-SCORE entry was “flagged”. Consider `NC(N)=Nc1nc(CSCCC(N)=NS(N)(=O)=O)cs1` [FAMOTIDINE], for which the Z-SCORE is -1.65.

For `CC(=O)O[C@]1(C(C)=O)CC[C@H]2[C@@H]3C=C(C)C4=CC(=O)CC[C@]4(C)[C@H]3CC[C@@]21C` [MEGESTROL ACETATE], the Z-SCORE is -1.44. With `CN1CCN(C2=Nc3ccccc3Oc3ccc(Cl)cc32)CC1` [Loxapine succinate], the Z-SCORE was -1.14.

The same assay, now with this note: compound screen of the NIH Clinical Collection, sheet raw data NCC-003; compounds ranked by Z-score.
Take `O=C(O[C@@H]1Cc2c(O)cc(O)cc2O[C@@H]1c1cc(O)c(O)c(O)c1)c1cc(O)c(O)c(O)c1` [Epigallocatechin gallate]: the Z-SCORE came to 1.36. In turn, `Cc1[nH]c(=O)c(C#N)cc1-c1ccncc1` [MILRINONE] yielded a Z-SCORE of -0.04. The same measure, in the same setting: for `CN1CCc2cc(Cl)c(O)cc2[C@@H](c2ccccc2)C1.Cl` [R(+)-SCH-23390 hydrochloride] the value was 0.87; for `CN1CCC(=C2c3ccccc3C=Cc3ccccc32)CC1` [Cyproheptadine hydrochloride], 0.2; for `CC(C)NCC(O)COc1ccc(COCCOC(C)C)cc1` (stereo not shown) [BISOPROLOL FUMARATE], 0.59. As to `CO[C@H]1/C=C/O[C@@]2(C)Oc3c(C)c(O)c4c(O)c(c(/C=N/N5CCN(C6CCCC6)CC5)c(O)c4c3C2=O)NC(=O)/C(C)=C\C=C\[C@H](C)[C@H](O)[C@@H](C)[C@@H](O)[C@@H](C)[C@H](OC(C)=O)[C@@H]1C` [RIFAPENTINE, reference compound], the Z-SCORE is reported as 0.75. `CC(Oc1c(Cl)cccc1Cl)C1=NCCN1` (stereo not shown) [LOFEXIDINE HCl] displayed a Z-SCORE of -0.17. Turning to `CC1CCN(CCCC(=O)c2ccc(F)cc2)CC1` [Metylperon], the Z-SCORE came out at 0.36. For the compound `c1cnc(N2CCN(Cc3ccc4c(c3)OCO4)CC2)nc1` [Piribedil], the Z-SCORE came out at 1.22. Turning to `CN(C)CCOC(c1ccccc1)c1ccccc1` [DIPHENHYDRAMINE HYDROCHLORIDE], the Z-SCORE came out at 1.01. Take `O=C([O-])Cc1ccccc1Nc1c(Cl)cccc1Cl.[Na+]`: the Z-SCORE is on record as 0.02. On to `CN(C)CCC[C@@]1(c2ccc(F)cc2)OCc2cc(C#N)ccc21` [ESCITALOPRAM OXALATE], for which the Z-SCORE is given as -0.11. `CNC(=O)Oc1ccc2c(c1)[C@]1(C)CCN(C)[C@@H]1N2C` [Physostigmine] came in with a Z-SCORE of 0.16.

`CNC1=Nc2ccc(Cl)cc2C(c2ccccc2)=[N+]([O-])C1` [CHLORDIAZEPOXIDE] came in with a Z-SCORE of 0.41. For `CCCc1nc(C(C)(C)O)c(C(=O)OCc2oc(=O)oc2C)n1Cc1ccc(-c2ccccc2-c2nnn[nH]2)cc1` [OLMESARTAN MEDOXOMIL], the Z-SCORE is on record as 0.84.

Turning to `Clc1cccc(Cl)c1NC1=NCCN1`, the Z-SCORE turned out to be 0.34. With `CS(=O)(=O)c1ccc(-c2cc(Br)sc2-c2ccc(F)cc2)cc1`, the Z-SCORE is 0.49.

Turning to `CCCCCCCCCCC[C@@H](C[C@@H]1OC(=O)[C@H]1CCCCCC)OC(=O)[C@H](CC(C)C)NC=O` [ORLISTAT], the Z-SCORE is recorded as 0.19. On to `CN1CCCC(n2nc(Cc3ccc(Cl)cc3)c3ccccc3c2=O)CC1` (stereo not shown) [AZELASTINE HCl], for which the Z-SCORE was -0.68. The compound `NC(=O)OCCCc1ccccc1` [PHENPROBAMATE] gave a Z-SCORE of -0.62. `CS(=O)(=O)O.O=C(O[C@H]1C[C@H]2CC3C[C@@H](C1)N2CC3=O)c1c[nH]c2ccccc12` [DOLASETRON MESYLATE] registered a Z-SCORE of 0.23. `CC(=O)O[C@H]1C[C@@H]2CC[C@@H]3[C@H](CC[C@@]4(C)[C@H]3C[C@H]([N+]3(C)CCCCC3)[C@@H]4OC(C)=O)[C@@]2(C)C[C@@H]1N1CCCCC1` [VECURONIUM BROMIDE] gave a Z-SCORE of 0.97. For `Cl.O=C(O)/C=C/c1ccc(Cn2ccnc2)cc1` [Ozagrel hydrochloride], the Z-SCORE is recorded as 0.36. Regarding `Cc1ccc(O)c([C@H](CCN(C(C)C)C(C)C)c2ccccc2)c1` [TOLTERODINE TARTRATE], the Z-SCORE is -1.01. Still for that read-out and setting: for `c1ccc(Cn2ccnc2)cc1` [1-BENZYLIMIDAZOLE] the value was -0.1.

Consider `C[C@H]1COc2c(C3(N)CC3)c(F)cc3c(=O)c(C(=O)O)cn1c23` [PAZUFLOXACIN], for which the Z-SCORE is -0.48. Consider `CN(CCCN1c2ccccc2CCc2ccccc21)CC(=O)c1ccc(Cl)cc1` [LOFEPRAMINE], for which the Z-SCORE was -0.53.

In the case of `CC(C)c1ccc2oc3nc(N)c(C(=O)O)cc3c(=O)c2c1` [Amlexanox, reference compound], the Z-SCORE stood at 4.7.

`COc1nc(C)nc(Cl)c1NC1=NCCN1.Cl` [MOXONIDINE HCl]: the Z-SCORE came out at 0.68. `CN(CCO)CC(O)Cn1cnc2c1c(=O)n(C)c(=O)n2C.O=C(O)c1cccnc1` (stereo not shown) [XANTHINOL NICOTINATE] yielded a Z-SCORE of -0.46. In turn, `CCCc1nc2c(C)cc(-c3nc4ccccc4n3C)cc2n1Cc1ccc(-c2ccccc2C(=O)O)cc1` returned a Z-SCORE of 0.38. In turn, `CC(C)(C)NC(=O)[C@@H]1CN(Cc2cccnc2)CCN1C[C@@H](O)C[C@@H](Cc1ccccc1)C(=O)N[C@H]1c2ccccc2C[C@H]1O` [INDINAVIR SULPHATE] yielded a Z-SCORE of 0.35.

The same assay, now with this note: compounds at 10 μM, 24 h; PC12 split TEV assay cells co-cultured with Nrg1-expressing PC12 cells; analysed with cellHTS2.
Compound `CC1(C)S[C@@H]2[C@H](NC(=O)COc3ccccc3)C(=O)N2[C@H]1C(=O)O` [Penicillin V, reference compound] displayed a Z-SCORE of 0.66. In the case of `Cc1cc(NS(=O)(=O)c2ccc(N)cc2)no1` [Sulfamethoxazole, reference compound], the Z-SCORE turned out to be 0.87. `CO[C@H]1/C=C/O[C@@]2(C)Oc3c(C)c(O)c4c(O)c(c(/C=N/N5CCN(C6CCCC6)CC5)c(O)c4c3C2=O)NC(=O)/C(C)=C\C=C\[C@H](C)[C@H](O)[C@@H](C)[C@@H](O)[C@@H](C)[C@H](OC(C)=O)[C@@H]1C` [RIFAPENTINE, reference compound] came in with a Z-SCORE of 0.91. `C#C[C@]1(O)CC[C@H]2[C@@H]3CCC4=CC(=O)CC[C@@H]4[C@H]3CC[C@@]21C` [19-Norethindrone, reference compound]: the Z-SCORE came to 0.63. Still for that read-out and setting: for `CN1CCN(C2=Nc3cc(Cl)ccc3Nc3ccccc32)CC1` [Clozapine, reference compound] the value was -0.31; for `C#C[C@]1(O)CC[C@H]2[C@@H]3CCC4=Cc5oncc5C[C@]4(C)[C@H]3CC[C@@]21C` [DANAZOL, reference compound], -0.3. As to `C[C@@](Cc1ccc(O)c(O)c1)(NN)C(=O)O` [CARBIDOPA, reference compound], the Z-SCORE is reported as -1.58. On the same count and under the same terms, for `CC(=O)Nc1nnc(S(N)(=O)=O)s1` [Acetazolamide, reference compound] the value was 0.2; for `NNCCc1ccccc1` [Phenelzine, reference compound], -0.21. In turn, `CNCCC(Oc1ccc(C(F)(F)F)cc1)c1ccccc1` (stereo not shown) [Prozac, reference compound] had a Z-SCORE of -1.46. As for `COc1ccccc1OCC(O)COC(N)=O` (stereo not shown) [Methocarbamol, reference compound], the Z-SCORE turned out to be 0.65. In the case of `CC(C)c1ccc2oc3nc(N)c(C(=O)O)cc3c(=O)c2c1` [Amlexanox, reference compound], the Z-SCORE was determined as 4.7. `C[C@]12C=CC(=O)C=C1CC[C@@H]1[C@@H]2C(=O)C[C@@]2(C)[C@H]1CC[C@]2(O)C(=O)CO` [Prednisone, reference compound] returned a Z-SCORE of -0.15. As for `Clc1ccc(COC(Cn2ccnc2)c2ccc(Cl)cc2Cl)cc1` (stereo not shown) [Econazole Nitrate, reference compound], the Z-SCORE was -2.43. Compound `CC(C)NCC(O)c1ccc(O)c(O)c1` (stereo not shown) [Isuprel, reference compound] registered a Z-SCORE of -0.93. In turn, “S(-)-Timolol maleate [reference compound]” returned a Z-SCORE of -0.49. Consider `CC1(C)S[C@@H]2[C@H](NC(=O)[C@H](N)c3ccc(O)cc3)C(=O)N2[C@H]1C(=O)O` [AMOXICILLIN CRYSTALLINE, reference compound], for which the Z-SCORE is -1.06. Compound `CN(C)[C@@H]1C(O)=C(C(N)=O)C(=O)[C@@]2(O)C(O)=C3C(=O)c4c(O)ccc(Cl)c4[C@@H](O)[C@H]3C[C@@H]12` [Demeclocycline, reference compound] registered a Z-SCORE of 0.1.
